Laboratory results: patent publication US20240392305A1, “GENETICALLY MODIFIED BACTERIA AND USES THEREOF FOR THE INDUCIBLE EXPRESSION OF A NUCLEIC SEQUENCE OF INTEREST” (Institut National de Recherche Pour l'Agriculture, …, priority 2021, published 2024)

Columns and labels:
SHP/Rgg1358 system = assay: Maximum luciferase activity of strain TIL1566 with different synthetic SHPs; assay type: cell-based, S. thermophilus; settings: strain TIL1566 in CDM, 37° C., synthetic peptide 1 μM; mean of three independent experiments
Protocol: For the assessment of the maximum luciferase activity reached with the addition of different SHPs in the culture media of strain TIL1566 (blp::rgg1358-Pster1357-luxAB-aphA3 ΔpptAB::erm), cells were grown overday at 37° C. in CDM. These cultures were diluted to a final OD600 of 0.05 in 1 ml of CDM. Synthetic SHP peptides were added in the culture medium at a final concentration of 1 μM. 250 μl of these diluted cultures were transferred to the wells of a covered sterile white microplate with a transparent bottom. The cultures' OD600 and luminescence values were monitored at 37° C. every 10 minutes in an Infinite M200 spectroluminometer, as previously described (Fontaine et al., J. Bacteriol. 192:1444-1454, 2010). The maximum of luminescence was recovered from each kinetic. The maximum activity was reported in Relative Luminescent Units divided by the OD600 (RLU/OD600) and measured as the mean of three independent experiments.
In order to assess their efficiency, we used their synthetic mature form to record the maximum luciferase activity of strain TIL1566 (blp::rgg1358-Pster1357-luxAB ΔpptAB::erm) in CDM and compared it to the one obtained with SHP1358. We chose the mature SHPs of strain CNRZ1066 similar to the mature SHP1358 (EGIIVIVVG, SEQ ID NO: 24): the SHP associated to Rgg STR_RS07375 (EGIIVILVG, SEQ ID NO: 25), the SHP associated to Rgg STR_RS09145 (EGIIVIGVG, SEQ ID NO: 26) and the SHP associated to Rgg STR_RS04530 (ESIIVIAVG, SEQ ID NO: 27). The most efficient peptide was ESIIVIAVG (SEQ ID NO: 27) with a maximum relative luciferase activity that reached 95% of the one obtained with SHP1358. The two other peptides were less efficient with percentage of 86% with EGIIVILVG (SEQ ID NO: 25) and only 27% with EGIIVIGVG (SEQ ID NO: 26).

elafin = assay: Western blot detection of secreted elafin in culture supernatants; assay type: cell-based, human
Text: FIG. 3. Production of elafin detected by Western blot in the supernatant of different S. thermophilus strains. (A) At OD600 0.2 and 0.5 for strain TIL1536 (ΔhtrA::aphA3 ΔsepM::spec), TIL1551 (blp::shp-rgg1358-Pster1357-elafin-P32 cm ΔhtrA::aphA3 ΔywdF::spec) and TIL1552 (blp::rgg1358-Pster1357-elafin-P32 cm ΔhtrA::aphA3 ΔywdF::spec). (B) At OD600 1 and 2 for strain TIL1536, TIL1551 and TIL1552. (C) At OD600 0.2, 0.5 and 1 for strain TIL1567 (blp::rgg1358-Pster1357-luxAB-aphA3 ΔhtrA::aphA3 ΔywdF::spec ΔpptAB::erm). Purified elafin was used as a positive control and strain TIL1536 as negative control (elafin non-producing strain). Induction of the production of elafin with the addition of synthetic SHP in the culture medium is mentioned with: +SHP.
For the preparation of the samples, derivatives of strain CNRZ1066 were grown in CDM at 42° C. When necessary, induction was performed with the addition of SHP peptide (EGIIVIVVG, SEQ ID NO: 24) at a final concentration of 1 μM for strain TIL1552 and 0.5 µM for strain TIL1567 in the growth medium at OD600 of 0.2. When the cultures reached the desired OD600, 10 ml were centrifuged at 3200 g for 10 min at room temperature. […]
For the Western blot experiments, 10 μl of the samples were diluted in Laemmli Buffer (4×) and heated to 95° C. for 5 minutes. […] Detection was finally recorded using a Chemidoc (Biorad).

Sequence	maximum relative luciferase activity, percentage of the one obtained with SHP1358 (SHP/Rgg1358 system) [%]	elafin level in induced culture versus uninduced culture (elafin; strain 1552, SHP 1 μM added at OD600 0.2, sampled at OD600 0.5)	production of elafin in the extracellular medium on addition of SHP (elafin; strain TIL1567 (ΔpptAB), SHP 0.5 μM added at OD600 0.2, detected at OD600 0.5 and 1)
EGIIVIGVG (listed as Streptococcus thermophilus)	27	–	–
EGIIVILVG (listed as Streptococcus thermophilus)	86	–	–
EGIIVIVVG (listed as Streptococcus thermophilus) [SHP1358, mature small hydrophobic peptide of S. thermophilus LMD-9, inducer of Rgg1358]	–	much greater	restored
ESIIVIAVG (listed as Streptococcus thermophilus)	95	–	–
